Laboratory results as given in patent publication US7888363B2, “Viral polymerase inhibitors” (Boehringer Ingelheim International GmbH, priority 2003, dated 2011).
One block for each compound: values may come before it.

Target: hepatitis C virus RNA dependant polymerase (NS5B) (Hepatitis C virus genotype 1b, UniProt P26663)
Assay: Inhibition of NS5B RNA dependent RNA polymerase activity
Type: biochemical
Procedure: A suitable assay is described in the examples.
Inhibition of NS5B RNA Dependent RNA Polymerase Activity
The compounds of the invention were tested for inhibitory activity against the hepatitis C virus RNA dependant polymerase (NS5B), according to protocol described in WO 03/010141

Chain of hepatitis C virus RNA dependant polymerase (NS5B) (P26663 2420-3010): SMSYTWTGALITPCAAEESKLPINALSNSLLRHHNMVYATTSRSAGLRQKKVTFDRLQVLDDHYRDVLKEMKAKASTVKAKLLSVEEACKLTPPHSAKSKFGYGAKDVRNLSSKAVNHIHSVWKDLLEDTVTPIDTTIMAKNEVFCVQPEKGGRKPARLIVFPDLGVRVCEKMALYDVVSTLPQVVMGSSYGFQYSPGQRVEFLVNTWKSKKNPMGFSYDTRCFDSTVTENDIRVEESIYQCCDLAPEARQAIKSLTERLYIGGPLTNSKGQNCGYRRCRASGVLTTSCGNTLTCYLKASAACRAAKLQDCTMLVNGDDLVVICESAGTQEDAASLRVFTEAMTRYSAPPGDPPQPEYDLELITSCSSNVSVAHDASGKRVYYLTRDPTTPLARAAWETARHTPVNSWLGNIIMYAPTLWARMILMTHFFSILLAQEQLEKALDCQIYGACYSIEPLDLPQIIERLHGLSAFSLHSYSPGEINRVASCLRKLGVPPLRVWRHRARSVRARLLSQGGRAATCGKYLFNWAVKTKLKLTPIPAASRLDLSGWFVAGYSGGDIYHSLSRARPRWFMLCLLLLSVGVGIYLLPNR

SMILES: O=C(Cn1c(-c2ccoc2)c(C2CCCCC2)c2ccc(C(=O)O)cc21)NCC1CCCCC1 [Example 1089]
IC50 (Table 1, HCV NS5B polymerase): 200 to 1000 nM

SMILES: O=C(Cc1ccccc1)NNC(=O)Cn1c(-c2ccoc2)c(C2CCCCC2)c2ccc(C(=O)O)cc21 [Example 1117]
IC50 (Table 1, HCV NS5B polymerase): 200 to 1000 nM

SMILES: O=C(O)c1ccc2c(C3CCCCC3)c(-c3ccoc3)n(CC(=O)N3CCCC(C(=O)O)C3)c2c1 (centres unmarked) [Example 1099]
IC50 (Table 1, HCV NS5B polymerase): < 200 nM

SMILES: CC(C)(NC(=O)Cn1c(-c2ccoc2)c(C2CCCCC2)c2ccc(C(=O)NC(C)(C)C(=O)Nc3ccc(/C=C/C(=O)O)cc3)cc21)C(=O)Nc1ccc(/C=C/C(=O)O)cc1 [Example 3005]
IC50 (Table 3, HCV NS5B polymerase): < 200 nM

SMILES: CCN(CCN(C)C)C(=O)Cn1c(-c2ccoc2)c(C2CCCCC2)c2ccc(C(=O)O)cc21 [Example 1022]
IC50 (Table 1, HCV NS5B polymerase): 200 to 1000 nM

SMILES: O=C(O)c1ccc2c(C3CCCCC3)c(-c3ccoc3)n(CC(=O)N3CCC(CCO)CC3)c2c1 [Example 1102]
IC50 (Table 1, HCV NS5B polymerase): < 200 nM

SMILES: O=C(Cn1c(-c2ccoc2)c(C2CCCCC2)c2ccc(C(=O)O)cc21)Nc1ccc(C(=O)O)cc1 [Example 1061]
IC50 (Table 1, HCV NS5B polymerase): 200 to 1000 nM

SMILES: CN(C)C(=O)Cn1c(-c2cccs2)c(C2CCCCC2)c2ccc(C(=O)O)cc21 [Example 1035]
IC50 (Table 1, HCV NS5B polymerase): < 200 nM

SMILES: CN(C)C(=O)Cn1c(-c2ccccn2)c(C2CCCCC2)c2ccc(C(=O)O)cc21 [Example 1142]
IC50 (Table 1, HCV NS5B polymerase): 200 to 1000 nM

SMILES: Cc1nn(C)c(Cl)c1S(=O)(=O)NC(=O)c1ccc2c(C3CCCCC3)c(-c3ccoc3)n(CC(=O)N3CCOCC3)c2c1 [Example 2033]
IC50 (Table 2, HCV NS5B polymerase): < 200 nM

SMILES: O=C(Cn1c(-c2ccoc2)c(C2CCCCC2)c2ccc(C(=O)O)cc21)NCc1ccco1 [Example 1056]
IC50 (Table 1, HCV NS5B polymerase): 200 to 1000 nM

SMILES: Cc1c(S(=O)(=O)NC(=O)c2ccc3c(C4CCCCC4)c(-c4ccoc4)n(CC(=O)N4CCOCC4)c3c2)cnn1-c1ccccc1 [Example 2042]
IC50 (Table 2, HCV NS5B polymerase): < 200 nM

SMILES: O=C(NS(=O)(=O)c1ccc(Cl)s1)c1ccc2c(C3CCCCC3)c(-c3ccoc3)n(CC(=O)N3CCOCC3)c2c1 [Example 2004]
IC50 (Table 2, HCV NS5B polymerase): < 200 nM

SMILES: O=C(Cn1c(-c2ccoc2)c(C2CCCCC2)c2ccc(C(=O)O)cc21)Nc1cccc(C(=O)O)c1 [Example 1070]
IC50 (Table 1, HCV NS5B polymerase): 200 to 1000 nM

SMILES: O=C(O)c1ccc2c(C3CCCCC3)c(-c3ccoc3)n(CC(=O)N3CCCC3)c2c1 [Example 1094]
IC50 (Table 1, HCV NS5B polymerase): < 200 nM

SMILES: COc1cc(C)ccc1S(=O)(=O)NC(=O)c1ccc2c(C3CCCCC3)c(-c3ccoc3)n(CC(=O)N3CCOCC3)c2c1 [Example 2040]
IC50 (Table 2, HCV NS5B polymerase): < 200 nM

SMILES: O=C(O)/C=C/c1ccc(NC(=O)Cn2c(-c3ccoc3)c(C3CCCCC3)c3ccc(C(=O)O)cc32)cc1 [Example 1071]
IC50 (Table 1, HCV NS5B polymerase): 200 to 1000 nM

SMILES: CC(C)NC(=O)Cn1c(-c2cccs2)c(C2CCCCC2)c2ccc(C(=O)O)cc21 [Example 1036]
IC50 (Table 1, HCV NS5B polymerase): 200 to 1000 nM

The next lines start with the values.

IC50 (Table 7, class ranges): 200 to 1000 nM
SMILES: CN1C(C)(C)CC(NC(=O)c2ccc3c(c2)c(C2CCCCC2)c(-c2ccoc2)n3CC(=O)N2CCC(N3CCCC3)CC2)CC1(C)C [Example 7053]

IC50 (Table 4, class ranges): < 200 nM
SMILES: O=C(O)C=Cc1ccc2nc(C3(NC(=O)c4ccc5c(C6CCCC6)c(-c6ccoc6)n(CC(=O)N6CCOCC6)c5c4)CCC3)[nH]c2c1 [Example 4070]

IC50 (Table 7, class ranges): 1000 to 10000 nM
SMILES: CC(NC(=O)c1ccc2c(c1)c(C1CCCCC1)c(-c1ccoc1)n2CC(=O)N1CCC(N2CCCC2)CC1)c1ccccc1 (centres unmarked) [Example 7026]

IC50 (Table 4, class ranges): < 200 nM
SMILES: CN1CCN(C(=O)Cn2c(-c3ccoc3)c(C3CCCCC3)c3ccc(C(=O)NCc4ccc(O)c(O)c4)cc32)CC1 [Example 4029]

IC50 (Table 4, class ranges): < 200 nM
SMILES: C[C@@H](NC(=O)c1ccc2c(C3CCCCC3)c(-c3ccoc3)n(CC(=O)N(C)C)c2c1)c1ccccc1 [Example 4058]

IC50 (Table 7, class ranges): 200 to 1000 nM
SMILES: COc1cc2c(C3CCCCC3)c(-c3ccoc3)n(CC(=O)N(C)C)c2cc1C(=O)O [Example 7006]

IC50 (Table 4, class ranges): 200 to 1000 nM
SMILES: O=C(NC1(c2csc(Nc3ccccc3)n2)CCC1)c1ccc2c(C3CCCCC3)c(-c3ccoc3)n(CC(=O)N3CCC(N4CCCC4)CC3)c2c1 [Example 4101]

IC50 (Table 4, class ranges): 200 to 1000 nM
SMILES: CN1CCN(C(=O)Cn2c(-c3ccoc3)c(C3CCCCC3)c3ccc(C(=O)NCCC4CCCN4C)cc32)CC1 (centres unmarked) [Example 4009]

IC50 (Table 4, class ranges): < 200 nM
SMILES: CNC(=O)C1(NC(=O)c2ccc3c(C4CCCCC4)c(-c4ccoc4)n(CC(=O)N4CCC(N5CCCC5)CC4)c3c2)CCCC1 [Example 4094]

IC50 (Table 4, class ranges): < 200 nM
SMILES: CN(C)C(=O)C1(NC(=O)c2ccc3c(C4CCCCC4)c(-c4ccoc4)n(CC(=O)N4CCOCC4)c3c2)CCCC1 [Example 4097]

IC50 (Table 5, HCV NS5B polymerase): 200 to 1000 nM
SMILES: C=CCn1c(-c2ccoc2)c(C2CCCCC2)c2ccc(C(=O)O)cc21 [Example 5004]

IC50 (Table 4, class ranges): 200 to 1000 nM
SMILES: CN1CCN(C(=O)Cn2c(-c3ccoc3)c(C3CCCCC3)c3ccc(C(=O)NCCc4ccccn4)cc32)CC1 [Example 4016]

IC50 (Table 4, class ranges): < 200 nM
SMILES: CN1CCN(C(=O)Cn2c(-c3ccoc3)c(C3CCCCC3)c3ccc(C(=O)NCc4ccc(S(C)(=O)=O)cc4)cc32)CC1 [Example 4041]

IC50 (Table 7, class ranges): 1000 to 10000 nM
SMILES: CC(C)CC(NC(=O)c1ccc2c(c1)c(C1CCCCC1)c(-c1ccoc1)n2CC(=O)N1CCC(N2CCCC2)CC1)C(N)=O (centres unmarked) [Example 7046]
